Laboratory results published in PubChem BioAssay (NCI).
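Dose response: 5 concentrations. Exposure: 48 h. Format: 96-well plates. Endpoint: linear interpolation; highest concentration if not reached. GI50 is the concentration that inhibits growth by half. At the TGI there is no net growth.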

Assays:
Test in all cases: growth of human tumour cells (NCI), 48 h
[1] = test system: KM12 colon
[2] = test system: SK-MEL-2 melanoma
[3] = test system: HCT-116 colon
[4] = test system: SR leukemia
[5] = test system: BT-549 breast
[6] = test system: MOLT-4 leukemia
[7] = test system: UO-31 renal
[8] = test system: A549 NSCLC
[9] = test system: SNB-75 CNS
[10] = test system: SF-539 CNS

| Compound | GI50 [1] [µM] | TGI [1] [µM] | GI50 [2] [µM] | TGI [2] [µM] | GI50 [3] [µM] | TGI [3] [µM] | GI50 [4] [µM] | TGI [4] [µM] | GI50 [5] [µM] | TGI [5] [µM] | GI50 [6] [µM] | TGI [6] [µM] | GI50 [7] [µM] | TGI [7] [µM] | GI50 [8] [µM] | TGI [8] [µM] | GI50 [9] [µM] | TGI [9] [µM] | TGI [10] [µM] | GI50 [10] [µM] |
| --- | --- | --- | --- | --- | --- | --- | --- | --- | --- | --- | --- | --- | --- | --- | --- | --- | --- | --- | --- | --- |
| CCCCCCCCN=C(N)c1ccc(N2CCN(c3ccc(C(N)=NCCCCCCCC)cc3)CC2)cc1 | 1.9 | 8.81 | 1.69 | > 50 | 1.64 | 5.99 | 0.97 | 2.26 | 1.41 | 3.82 | 0.724 | 3.4 | 4.22 | > 50 | 1.67 | 9.08 | – | – | – | – |
| COc1ccc2c(c1)/C(=C\c1c(C)nc3sccn13)C(=O)N2 | < 0.0402 | 25.5 | 0.162 | > 83.7 | – | > 31.8 | 0.0309 | 0.38 | – | > 82.9 | < 0.0462 | – | 0.0147 | 20.3 | 0.155 | > 100 | 0.372 | > 100 | – | – |
| NNC(=O)/C(=C/c1ccc(Cl)cc1Cl)NC(=O)c1ccccc1 | – | > 100 | – | > 100 | – | > 100 | – | > 100 | – | – | – | > 100 | – | > 100 | – | > 100 | – | > 100 | > 100 | – |
| Cc1ccc(C(=O)c2nnc(C(=O)c3ccc(C)cc3)nn2)cc1 | – | > 100 | – | > 100 | – | > 100 | – | 37.6 | – | – | – | > 100 | – | > 100 | – | > 100 | – | > 100 | > 100 | – |
| COc1ccc(/C=C(/C#N)C(N)=O)cc1OC | – | > 100 | – | > 100 | – | > 100 | – | > 100 | – | > 100 | – | > 100 | – | – | – | > 100 | – | > 100 | > 100 | – |
| Nc1nc2c(c3ncncc13)C(c1cccc(C(F)(F)F)c1)Cc1ncncc1-2 (stereo not given) | 4.43 | 35.5 | 5.36 | 29.7 | 4.85 | 37 | – | – | 4.08 | 21.5 | 4.78 | 34.9 | 7.22 | 85 | 5.45 | > 100 | 3.11 | 43.7 | 5.97 | 1.98 |
| CC1(C)C(=NNC(=O)C[N+](C)(C)C)C(C)(C)C1=NNC(=O)C[N+](C)(C)C | – | > 100 | – | > 100 | – | > 100 | – | > 100 | – | – | – | > 100 | – | > 100 | – | > 100 | – | > 100 | > 100 | – |
| O=C(/C=C/c1ccccc1)c1cc(Br)ccc1O | – | 25.7 | – | 40.6 | – | 32.3 | – | 12.3 | – | 33 | – | 36.3 | – | 22.9 | – | 52.2 | – | 28.9 | – | – |
| C[C@@H]1C[C@H]2CC[C@H](O2)[C@H](C)C(=O)O[C@@H](C)C[C@@H]2CC[C@@H](O2)[C@@H](C)C(=O)O[C@H](C)C[C@H]2CC[C@H](O2)[C@H](C)C(=O)O[C@@H](C)C[C@@H]2CC[C@@H](O2)[C@@H](C)C(=O)O1 | – | – | – | 3.34 | – | > 100 | – | > 42.8 | – | > 100 | – | 22 | – | – | – | > 100 | – | – | > 100 | – |
| Cc1c(C(=O)C/C(=N\O)C(=O)Nc2cc(Cl)c(Cl)cc2Cl)[n+](=O)c2ccccc2n1[O-] | – | 26.2 | – | 34.8 | – | 17 | – | 84.4 | – | – | – | 32.8 | – | 78.2 | – | > 100 | – | > 100 | 32.7 | – |
| Nc1ccccc1C#C/C=C\C#Cc1cccs1 | 5.66 | 25.6 | 16.2 | 43.3 | 9.55 | 46.5 | – | – | 12.2 | 28.7 | 2.49 | 84.1 | 8.77 | > 43.5 | 10.4 | > 42.5 | 16.8 | 61.9 | 17.8 | 5.6 |
| COc1ccc(-c2ccc(/C=N/n3c(COc4ccc(Cl)cc4Cl)nn(CN4CCOCC4)c3=S)o2)c([N+](=O)[O-])c1 | 16.7 | 32.6 | – | – | 16.5 | 30.1 | 27.7 | 68.4 | 13.2 | 44.6 | 19.4 | 63.3 | 42.7 | > 100 | 24.1 | > 100 | – | – | 62.9 | 18.8 |
| N#Cc1c(N2CCCC2)[nH]c(=O)c(C(c2c(Cl)cccc2Cl)c2c(O)c(C#N)c(N3CCCC3)[nH]c2=O)c1O | 22.6 | 54 | 16.6 | 45.4 | 14.7 | 40 | – | – | 2.3 | 6.25 | > 100 | > 100 | 16.1 | 35.9 | 18.8 | 36 | 12.5 | 33 | 10.9 | 0.369 |
| CSc1ccc(C2OC(=O)c3ccccc32)c2ccccc12 (stereo not given) | – | > 100 | – | > 100 | – | > 100 | – | > 100 | – | – | – | > 100 | – | > 100 | – | > 100 | – | 61.2 | > 100 | – |
| C/C(=N\NS(=O)(=O)c1ccccc1)c1ccc(Cl)c(Cl)c1 | – | > 100 | – | > 100 | – | > 100 | – | > 100 | – | – | – | > 100 | – | > 100 | – | > 100 | – | > 100 | > 100 | – |
| CCCCCCCCCCCC(=O)OCC1OC(n2cc(F)c(=O)[nH]c2=O)C(NC(=O)OCc2ccccc2)C(OC(=O)CCCCCCCCCCC)C1O (stereo not given) | – | > 100 | – | > 100 | – | > 100 | – | > 100 | – | – | – | > 100 | – | > 100 | – | > 100 | – | > 100 | > 100 | – |
| COc1ccc(OC)c(/C=C2\SC(=S)NC2=O)c1 | 58.7 | > 100 | 80.6 | > 100 | 29.9 | > 100 | 37.6 | > 100 | – | – | 44.8 | > 100 | 33.6 | > 100 | 26 | 89.9 | 29.3 | > 100 | 49.6 | 17.4 |
| CN(C)CCCNC(CC#N)CCC#N (stereo not given) | – | > 10 | – | > 10 | – | > 10 | – | – | – | > 10 | – | > 10 | – | > 10 | – | > 10 | – | > 10 | > 10 | – |
| O=C(N/C(=C\c1ccc2c(c1)OCO2)c1nc2ccccc2[nH]1)c1ccccc1 | – | > 100 | – | 55.9 | – | > 89 | – | 72.3 | – | – | – | 56.9 | – | 99.8 | – | > 100 | – | > 74 | 82.7 | – |
